Reference: US4626535A, “Cephalosporins” (Bayer Aktiengesellschaft, priority 1983, dated 1986)
Values after ≈ are worked out from the molar mass of the structure shown.

Legend:
Test in all cases: in vitro MIC comparison in Isosensitest agar
Format in all cases: cell-based
Staph. E = details: Staphylococcus
Excerpt: (§1) The compound of Example 21 was compared in vitro with Cefotaxim (MIC-comparison in Isosensitest agar): […]

Staph. 1756 = details: Staphylococcus
Excerpt: as §1

Staph. 133 = details: Staphylococcus
Excerpt: as §1

Psdm. Walter = details: Pseudomonas
Excerpt: as §1

Staph. 25470 = details: Staphylococcus
Excerpt: as §1

[1] = system: Enterobacter Cloacae 56US; details: CLOACAE56US
Excerpt: as §1

Psdm. 7035 = details: Pseudomonas
Excerpt: as §1

Compound | MIC (Staph. E) [µg/mL] | MIC (Staph. 1756) [µg/mL] | MIC (Staph. 133) [µg/mL] | MIC (Psdm. Walter) [µg/mL] | MIC (Staph. 25470) [µg/mL] | MIC [1] [µg/mL] | MIC (Psdm. 7035) [µg/mL]
CO/N=C(\C(=O)N[C@@H]1C(=O)N2C(C(=O)O)=C(COC(C)=O)CS[C@H]12)c1csc(N)n1 [Cefotaxim] | 0.5 (≈ 1.1 µM) | 128 (≈ 281 µM) | 1 (≈ 2.2 µM) | 16 (≈ 35.1 µM) | > 128 | > 128 | 16 (≈ 35.1 µM)
C/C=C(\C(=O)NC1C(=O)N2C(C(=O)[O-])=C(C[n+]3ccccc3)CSC12)c1nsc(N)n1 (centres unmarked) [Example 21, 7-(1-(5-Amino-1,2,4-thiadiazol-3-yl)-1(Z)-propenecarboxamido)-3-pyridiniummethyl-3-cephem-4-carboxylate] | 0.125 (≈ 0.273 µM) | 8 (≈ 17.4 µM) | 0.5 (≈ 1.09 µM) | 8 to 16 (≈ 17.4 to 34.9 µM) | 8 (≈ 17.4 µM) | 64 (≈ 140 µM) | 8 (≈ 17.4 µM)
